US9556113B2, “Combination uses of dichloroacetate and oxamate, and their prodrugs, for cancer treatment” (The South Dakota Board of Regents, priority 2014, dated 2017)

System: HPV+E6E7 Ras tumor (E6/E7/Ras MOEs cells)
Assay: Tumor response to cisplatin/radiation therapy (CRT), HPV positive HNSCC mouse model
Assay type: in vivo, C57Bl/6 mice
Settings: for tumor growth with CRT compared to DCA plus oxamate (FIG. 8A/19): prodrug 7.6 mg/mouse i.p. weekdays, control DCA 6 mg/mouse + oxamate 2 (2.2) mg/mouse, all with CRT
Experimental: FIG. 7 illustrates the effects of DCA plus oxamate on tumor growth (A) or on survival (B) with HPV+ model of HNSCC in wild-type C57Bl/6 mice. All mice received 3 rounds of cisplatin (0.132 mg/mouse) plus radiation (8 Gy/mouse) treatment (Tx) at weekly intervals starting […] after tumor initiation. Mice receiving DCA (6 mg/mouse) plus oxamate (15 mg/mouse) were treated every weekday, starting with the first chemoradiation treatment by i.p. injection.
FIG. 8 illustrates a comparison of prodrugs to DCA plus oxamate on tumor growth (A) or on survival (B) with HPV+ model of HNSCC in wild-type C57Bl/6 mice. All mice received 3 rounds of CRT [cisplatin (0.132 mg/mouse) plus radiation (8 Gy/mouse) treatment (Tx) at weekly intervals starting 11 days after tumor initiation]. Mice receiving DCA (6 mg/mouse) plus oxamate (2.2 mg/mouse) were treated every weekday starting with the first chemoradiation treatment by i.p. injection. Mice treated with AT-N4-001 or AT-N4-002 prodrugs (7.6 mg/mouse) were treated on the same schedule as mice treated with DCA+oxamate.
FIG. 18. The effects of DCA, oxamate, DCA plus oxamate on the responses of HPV+E6E7 Ras tumor to CRT. One million E6/E7/Ras MOEs cells were injected subcutaneously into the rear leg of wild-type C57Bl/6 mice. After 11 days, a treatment with DCA (6 mg/mouse) and oxamate (15 mg/mouse) were injected daily by i.p. on weekdays for the remainder of the experiment. All mice received three rounds of treatment with CRT (0.132 mg/mouse cisplatin and 8 Gy radiation, weekly starting at day 11). Tumor volume is mm^3.
FIG. 19 depicts the effects of DCA plus oxamate vs the effects of prodrug 1 or prodrug 2 on the responses of HPV+E6E7 Ras tumor to CRT. Tumors were initiated by injecting 0.5×10^6 E6/E7/Ras MOEs cells. After 11 days, a treatment with DCA (6 mg/mouse) plus oxamate (2 mg/mouse), or prodrug 1 (7.6 mg/mouse), or prodrug 2 (7.6 mg/mouse) was initiated daily by i.p. on weekdays. The doses of DCA and oxamate were equal molar equivalents as would be released from the prodrugs. All mice received three rounds of treatment with CRT (0.132 mg/mouse cisplatin and 8 Gy radiation, weekly starting at day 11). Tumor volume is in mm^3.
The effects of various treatments on tumor responses were carried out by examining whether the treatment could improve tumor's response to CRT with a HPV positive HNSCCs mouse model. CRT is a standard treatment for HPV-positive HNSCC in the clinic (46). […] Applicants also used this model to investigate the effects of lactate on CRT-induced immune-mediated cancer clearance (46) and DCA's effect on the tumor's response to CRT (unpublished data). The literature reported dosages of DCA and oxamate were used (6,23,52,53)(41).
To study the effects of the prodrugs on tumor growth in vivo, C57Bl/6 immune-competent mice implanted with E6/E7/Ras MOEs cells were used as described previously (46). All experiments were performed in accordance with institutional and national guidelines and regulations with the protocol approved by the Animal Care and Use Committee at Sanford Research. Briefly, 1×10^6 tumor HPV+HNSCC cells were injected into the right subcutaneous flank of syngeneic male C57Bl/6 mice. Eleven days after tumor initiation, treatment was initiated daily on weekdays by i.p. injection of vehicle, DCA, Oxamate, DCA+oxamate, prodrug 1, or prodrug 2. All mice received three rounds of treatment with cisplatin/radiation therapy (CRT: 0.132 mg/mouse cisplatin and 8 Gy radiation, weekly starting at day 11). Tumor dimensions were measured weekly to monitor growth. Mice with tumors reaching a volume of 3000 mm^3 or becoming substantially emaciated were euthanized.
To study the effects of the new prodrugs on tumor growth in vivo, C57Bl/6 immune-competent mice were used. Tumors were established on the right flank of the leg. After 11 days, treatment was initiated with daily i.p. injection of vehicle, AT-N4-001, or AT-N4-002. […]

NC(=O)C(=O)OC(COC(=O)C(Cl)Cl)COC(=O)C(Cl)Cl [AT-N4-001, 2-(2-Amino-2-oxoacetoxy)propane-1,3-diyl bis(2,2-dichloroacetate)]
tumor growth with CRT compared to DCA plus oxamate (FIG. 8A/19): initially reduced tumor growth compared to CRT+DCA+oxamate control, but this was not maintained over longer times
tumor growth with CRT compared to DCA plus oxamate (FIG. 8A/19) (listed as prodrug 1): about equally potent as that of the combination

NC(=O)C(=O)OCC(COC(=O)C(Cl)Cl)OC(=O)C(Cl)Cl (centres unmarked) [AT-N4-002, 3-(2-amino-2-oxoacetoxy)propane-1,2-diyl bis(2,2-dichloroacetate)]
long-term survival (FIG. 8B) (CRT + 7.6 mg/mouse i.p.): ~25%
tumor growth with CRT compared to DCA plus oxamate (FIG. 8A/19): reduced average tumor growth compared to the control during the entire experiment
tumor growth with CRT compared to DCA plus oxamate (FIG. 8A/19) (listed as Prodrug 2): more effective than DCA plus oxamate during the entire experiment
